The values below come from ChEMBL document CHEMBL3734684, “Identification and optimisation of a series of tetrahydrobenzotriazoles as metabotropic glutamate receptor 5-selective positive allosteric modulators that improve performance in a preclinical model of cognition” (Bioorg Med Chem Lett, 2015).

The target in data set [1] is T1, Metabotropic glutamate receptor 5 (Homo sapiens, UniProt P41594). The data set is described as follows: Positive allosteric modification of human recombinant mGlu5 receptor expressed in U2OS cells assessed as potentiation of glutamate-induced Ca2+ flux in presence of EC20 glutamate. It is filed as functional, cell-based.
Target sequence in this assay (P41594 whole entry): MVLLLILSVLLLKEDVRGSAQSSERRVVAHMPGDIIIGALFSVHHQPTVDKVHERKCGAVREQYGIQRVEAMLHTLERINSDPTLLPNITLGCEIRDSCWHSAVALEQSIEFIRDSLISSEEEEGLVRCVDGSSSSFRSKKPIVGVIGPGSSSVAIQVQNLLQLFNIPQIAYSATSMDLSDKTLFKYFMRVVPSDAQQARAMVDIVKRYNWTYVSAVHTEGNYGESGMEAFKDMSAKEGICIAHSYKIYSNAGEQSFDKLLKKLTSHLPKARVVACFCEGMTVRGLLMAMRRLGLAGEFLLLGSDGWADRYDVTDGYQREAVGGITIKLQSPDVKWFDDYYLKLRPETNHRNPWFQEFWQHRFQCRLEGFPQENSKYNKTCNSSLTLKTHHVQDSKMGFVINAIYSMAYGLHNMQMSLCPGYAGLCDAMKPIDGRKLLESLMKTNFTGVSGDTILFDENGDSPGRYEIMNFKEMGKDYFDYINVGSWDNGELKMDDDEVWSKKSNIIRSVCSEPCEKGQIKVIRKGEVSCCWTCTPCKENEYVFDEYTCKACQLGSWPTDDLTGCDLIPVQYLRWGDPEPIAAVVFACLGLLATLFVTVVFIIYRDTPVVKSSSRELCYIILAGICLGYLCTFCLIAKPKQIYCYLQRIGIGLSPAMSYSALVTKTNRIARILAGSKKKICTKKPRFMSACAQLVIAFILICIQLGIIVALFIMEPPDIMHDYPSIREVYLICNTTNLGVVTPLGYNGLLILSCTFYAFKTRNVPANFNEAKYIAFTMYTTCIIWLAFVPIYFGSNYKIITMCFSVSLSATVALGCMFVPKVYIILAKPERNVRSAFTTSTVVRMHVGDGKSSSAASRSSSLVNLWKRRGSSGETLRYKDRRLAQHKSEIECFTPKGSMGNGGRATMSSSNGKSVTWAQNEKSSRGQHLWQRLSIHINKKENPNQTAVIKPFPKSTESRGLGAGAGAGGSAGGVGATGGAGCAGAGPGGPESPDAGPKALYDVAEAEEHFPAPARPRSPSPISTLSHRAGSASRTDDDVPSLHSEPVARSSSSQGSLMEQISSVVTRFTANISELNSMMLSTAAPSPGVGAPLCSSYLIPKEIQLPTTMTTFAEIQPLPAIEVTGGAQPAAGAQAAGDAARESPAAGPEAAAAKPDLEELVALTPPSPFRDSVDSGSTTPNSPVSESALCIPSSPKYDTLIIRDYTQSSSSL
The target in data set [2] is T1, Metabotropic glutamate receptor 5. The data set is described as follows: Positive allosteric modification of human recombinant mGlu5 receptor expressed in U2OS cells assessed as Ca2+ flux upto 25 uM relative to glutamate. Format: functional, cell-based.
Target sequence in this assay (P41594 21-1212 limits assumed): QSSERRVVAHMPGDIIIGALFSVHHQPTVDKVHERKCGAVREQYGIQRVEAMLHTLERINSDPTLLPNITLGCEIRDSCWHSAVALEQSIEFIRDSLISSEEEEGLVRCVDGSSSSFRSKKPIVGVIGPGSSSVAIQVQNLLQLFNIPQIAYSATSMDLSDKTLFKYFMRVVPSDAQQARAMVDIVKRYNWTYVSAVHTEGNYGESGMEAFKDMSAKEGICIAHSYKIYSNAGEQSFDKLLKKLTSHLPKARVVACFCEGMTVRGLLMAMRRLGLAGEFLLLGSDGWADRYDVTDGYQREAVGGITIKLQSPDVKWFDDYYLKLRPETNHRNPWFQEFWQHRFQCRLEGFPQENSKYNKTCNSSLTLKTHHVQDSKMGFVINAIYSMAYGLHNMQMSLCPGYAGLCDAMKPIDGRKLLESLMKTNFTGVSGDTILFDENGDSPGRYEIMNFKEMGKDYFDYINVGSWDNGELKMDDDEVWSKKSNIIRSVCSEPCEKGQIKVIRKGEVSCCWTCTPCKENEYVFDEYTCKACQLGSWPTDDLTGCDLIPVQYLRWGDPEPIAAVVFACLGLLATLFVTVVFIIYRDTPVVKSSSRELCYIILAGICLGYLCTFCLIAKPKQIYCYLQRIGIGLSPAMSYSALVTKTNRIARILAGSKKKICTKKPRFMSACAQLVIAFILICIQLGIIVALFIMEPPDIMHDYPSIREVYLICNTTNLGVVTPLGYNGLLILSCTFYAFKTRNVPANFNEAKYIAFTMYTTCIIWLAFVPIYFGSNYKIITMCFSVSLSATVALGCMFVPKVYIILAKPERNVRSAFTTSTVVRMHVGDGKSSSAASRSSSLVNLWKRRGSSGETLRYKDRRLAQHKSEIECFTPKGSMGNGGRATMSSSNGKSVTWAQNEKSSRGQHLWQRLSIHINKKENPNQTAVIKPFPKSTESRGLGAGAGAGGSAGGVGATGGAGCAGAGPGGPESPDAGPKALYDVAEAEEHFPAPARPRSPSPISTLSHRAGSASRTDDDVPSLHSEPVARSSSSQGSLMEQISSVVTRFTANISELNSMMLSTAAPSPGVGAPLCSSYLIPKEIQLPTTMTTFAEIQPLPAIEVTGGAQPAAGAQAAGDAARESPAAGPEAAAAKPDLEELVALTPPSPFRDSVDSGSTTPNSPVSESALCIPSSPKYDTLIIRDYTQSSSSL
Data set [3] concerns the target Metabotropic glutamate receptor 5 (Rattus norvegicus) (UniProt P31424). The data set is described as follows: Positive allosteric modification of mGlu5 receptor in rat cortical astrocytes assessed as maximal leftward shift in the EC50 of glutamate induced response upto 25 uM. Format: cell-based.
Data set [4] is described as follows: Intrinsic clearance in human liver microsomes at 3 uM. It is filed as ADME. The settings on record: read-out: CLH.
Data set [5] is described as follows: Intrinsic clearance in rat liver microsomes at 3 uM. It is filed as ADME. The settings on record: read-out: CLH.
Data set [6] concerns MDCK. In words: Permeability from apical to basolateral side in MDCK cells at 1 uM. Format: ADME, cell-based, Canis lupus familiaris. The settings on record: dog.
The test system of data set [7] is MDCK. The data set is described as follows: Efflux ratio of permeability from apical to basolateral side to basolateral to apical side in MDCK cells. Format: ADME, cell-based, Canis lupus familiaris. The settings on record: dog.
A short description of data set [8]: Kinetic solubility of compound in phosphate buffer saline at pH 7.4. Format: physicochemical. The settings on record: for solubility kinetic: phosphate buffered saline, read-out: Kinetic_solubility.
A short description of data set [9]: Fraction unbound in rat brain. It is filed as ADME, tissue-based.
Data set [10] in a line: Clearance in Sprague-Dawley rat at 0.5 mg/kg, iv. Format: ADME, organism-based. The settings on record: in vivo.
A short description of data set [11]: Volume of distribution at steady state in Sprague-Dawley rat at 0.5 mg/kg, iv. It is filed as ADME, organism-based. The settings on record: in vivo, read-out: Vdss.
Data set [12] in a line: Tmax in Sprague-Dawley rat at 3 mg/kg, po. Format: ADME, organism-based. The settings on record: in vivo.
The nature of data set [13]: Half life in Sprague-Dawley rat at 3 mg/kg, po. Format: ADME, organism-based. The settings on record: in vivo.
Data set [14] in a line: Oral bioavailability in Sprague-Dawley rat at 3 mg/kg. It is filed as ADME, organism-based. The settings on record: in vivo.
Data set [15] is described as follows: Cmax in Sprague-Dawley rat plasma at 3 mg/kg, po. It is filed as ADME, organism-based. Set-up: dose 3 mg/kg, route oral.
Data set [16] can be described thus: Brain to plasma ratio in Sprague-Dawley rat at 3 mg/kg, po. It is filed as ADME, organism-based. The settings on record: brain and plasma, read-out: BPR.
The test system of a further data set is Rattus norvegicus. In words: Cognitive enhancing effect in po dosed rat measured after 4 hrs by novel object recognition test. The settings on record: for minimal effective dose: Rattus norvegicus, po, 4 h, read-out: MED. Format: functional.
Data set [17] is filed under the species Homo sapiens. In words: Agonist activity at mGlu receptor (unknown origin).
For data set [18], the species on record is Homo sapiens. The data set is described as follows: Positive allosteric modification of mGlu receptor (unknown origin).
For data set [19], the species on record is Homo sapiens. In words: Negative allosteric modification of mGlu receptor (unknown origin).
Data set [20] in a line: Inhibition of CYP450 (unknown origin). The settings on record: human. It is filed as ADME.
Data set [21] has as its target Voltage-gated inwardly rectifying potassium channel KCNH2 (Homo sapiens, UniProt Q12809). In words: Inhibition of human ERG.
Data set [22] can be described thus: Clearance in Sprague-Dawley rat at 0.25 mg/kg, iv. It is filed as ADME, organism-based. The settings on record: in vivo.
Data set [23] can be described thus: Volume of distribution at steady state in Sprague-Dawley rat at 0.25 mg/kg, iv. It is filed as ADME, organism-based. The settings on record: in vivo, read-out: Vdss.

Converted amounts (≈) assume the structure as drawn. The source made the active and inactive calls. The calls are words filed in the database; no cut-off is given here.

Chain of Metabotropic glutamate receptor 5 (Rattus norvegicus) (P31424 21-1203 limits assumed): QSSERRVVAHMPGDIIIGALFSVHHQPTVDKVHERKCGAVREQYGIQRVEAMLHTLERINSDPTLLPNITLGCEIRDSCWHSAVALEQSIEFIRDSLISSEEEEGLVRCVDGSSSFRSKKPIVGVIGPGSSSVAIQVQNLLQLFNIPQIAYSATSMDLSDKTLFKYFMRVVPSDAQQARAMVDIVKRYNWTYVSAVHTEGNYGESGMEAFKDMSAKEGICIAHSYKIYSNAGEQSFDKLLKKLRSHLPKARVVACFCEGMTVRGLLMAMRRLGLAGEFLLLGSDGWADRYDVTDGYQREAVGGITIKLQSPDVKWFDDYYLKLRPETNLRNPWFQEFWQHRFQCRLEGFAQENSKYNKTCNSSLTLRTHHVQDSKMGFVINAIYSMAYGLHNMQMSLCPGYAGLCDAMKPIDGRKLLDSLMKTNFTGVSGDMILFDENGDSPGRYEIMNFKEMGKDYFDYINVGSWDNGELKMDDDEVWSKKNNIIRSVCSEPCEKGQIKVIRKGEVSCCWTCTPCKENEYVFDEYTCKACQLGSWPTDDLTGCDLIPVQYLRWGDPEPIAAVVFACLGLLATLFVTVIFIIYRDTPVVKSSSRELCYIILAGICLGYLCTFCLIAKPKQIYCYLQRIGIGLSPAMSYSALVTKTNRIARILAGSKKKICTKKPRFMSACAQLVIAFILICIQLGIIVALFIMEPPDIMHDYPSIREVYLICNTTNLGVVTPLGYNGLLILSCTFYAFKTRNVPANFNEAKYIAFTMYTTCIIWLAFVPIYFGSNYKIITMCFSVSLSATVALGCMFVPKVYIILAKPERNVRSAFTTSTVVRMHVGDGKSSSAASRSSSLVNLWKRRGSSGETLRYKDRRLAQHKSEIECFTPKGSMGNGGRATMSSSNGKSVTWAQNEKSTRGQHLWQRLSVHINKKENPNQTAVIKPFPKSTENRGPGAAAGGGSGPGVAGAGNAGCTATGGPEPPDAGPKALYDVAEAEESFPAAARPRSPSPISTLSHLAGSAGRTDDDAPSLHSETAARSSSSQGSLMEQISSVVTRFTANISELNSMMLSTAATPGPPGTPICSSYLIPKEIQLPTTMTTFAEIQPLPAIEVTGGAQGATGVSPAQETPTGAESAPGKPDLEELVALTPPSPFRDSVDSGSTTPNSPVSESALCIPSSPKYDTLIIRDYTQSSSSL
Chain of Voltage-gated inwardly rectifying potassium channel KCNH2 (Q12809 whole entry): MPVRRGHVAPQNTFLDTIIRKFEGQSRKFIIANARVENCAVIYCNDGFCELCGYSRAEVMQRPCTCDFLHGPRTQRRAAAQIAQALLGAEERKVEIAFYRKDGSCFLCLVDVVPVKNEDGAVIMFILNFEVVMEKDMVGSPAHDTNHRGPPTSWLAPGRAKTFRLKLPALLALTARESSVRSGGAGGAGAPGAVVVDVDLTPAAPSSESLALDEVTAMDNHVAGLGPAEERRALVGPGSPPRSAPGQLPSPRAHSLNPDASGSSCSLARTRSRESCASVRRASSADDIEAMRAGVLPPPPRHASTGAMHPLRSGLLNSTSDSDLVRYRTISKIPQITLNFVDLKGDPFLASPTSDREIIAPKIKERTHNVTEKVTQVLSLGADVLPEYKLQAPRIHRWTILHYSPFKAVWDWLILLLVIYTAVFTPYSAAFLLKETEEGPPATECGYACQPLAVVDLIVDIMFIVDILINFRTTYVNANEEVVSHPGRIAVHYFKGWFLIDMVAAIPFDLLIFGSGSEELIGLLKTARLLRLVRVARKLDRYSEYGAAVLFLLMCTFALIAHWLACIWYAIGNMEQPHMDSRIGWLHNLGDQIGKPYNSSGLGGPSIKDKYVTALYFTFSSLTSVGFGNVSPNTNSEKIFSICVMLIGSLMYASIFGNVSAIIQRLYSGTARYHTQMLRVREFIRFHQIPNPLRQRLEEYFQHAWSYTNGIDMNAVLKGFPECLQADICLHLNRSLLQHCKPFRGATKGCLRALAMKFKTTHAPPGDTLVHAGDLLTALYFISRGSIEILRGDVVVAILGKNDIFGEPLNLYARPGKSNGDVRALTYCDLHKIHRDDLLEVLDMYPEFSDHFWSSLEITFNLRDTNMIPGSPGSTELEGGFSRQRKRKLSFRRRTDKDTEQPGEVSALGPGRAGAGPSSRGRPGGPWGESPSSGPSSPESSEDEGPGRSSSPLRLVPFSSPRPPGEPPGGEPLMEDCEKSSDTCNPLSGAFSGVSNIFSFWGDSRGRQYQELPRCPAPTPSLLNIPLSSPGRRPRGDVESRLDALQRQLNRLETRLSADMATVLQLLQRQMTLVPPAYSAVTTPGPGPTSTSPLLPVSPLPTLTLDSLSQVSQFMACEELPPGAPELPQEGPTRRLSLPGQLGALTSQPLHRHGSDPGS

`CC(C)(C)n1nnc2c1CCC(c1nc(-c3ccc(F)cc3)no1)C2` (stereo not given): the EC50 in data set [1] is 5.01 nM. The %max in [2] was found to be 98%. Besides, in [3], the fold change (FC) turned out to be 4. Further, the results for the microsomal CLint at 3 µM in [4] and in data set [5] were 18 µL/min/mg and 20 µL/min/mg, respectively. The same molecule gave a permeability in the data set on MDCK [6] of 42 ×10⁻⁶ cm/s. The Ratio in the data set with MDCK [7] came out at 0.8. Moreover, the solubility kinetic in [8] was 6 µM (≈ 2.05 µg/mL). Moreover, in [9], the unbound share (fraction unbound) was determined as 0.013. The molecule further displayed a clearance in [10] of 11 mL/min/kg. The Vd in [11] came to 4.3 L/kg. Besides, the Tmax in [12] is 4 h. In data set [13], this molecule gave a half-life of 6.5 h. The bioavailability in [14] was determined as 46%. This molecule gave a Cmax in data set [15] of 438 nM. In [16], the Kp amounted to 2. The minimal effective dose in the data set with Rattus norvegicus amounted to 0.3 mg/kg. Besides, the outcome in the data set listed under Homo sapiens [17], in the data set filed under Homo sapiens [18] and in the data set listed under Homo sapiens [19] was inactive. Also, the “inhibition (INH)” value in data set [20] is on record as “Not Active”.
Take `CC(C)(C)n1nnc2c1CCC(c1nnc(-c3ccc(F)cc3)o1)C2` (racemic): the EC50 in data set [1] is 3160 nM. Moreover, the %max in data set [2] turned out to be 53%.
As for `CC1(n2nnc3c2CCC(c2nc(-c4ccc(F)cc4)no2)C3)CCOCC1` (stereo not given), in data set [1], the EC50 is 10 nM. Further, the %max in [2] was 103%. Moreover, in [3], the fold change (FC) was 7.
Consider `Cc1ccc(-c2noc(C3CCc4c(nnn4C(C)(C)C)C3)n2)cn1` (racemic), for which the EC50 in data set [1] is 1580 nM. Moreover, the %max in data set [2] came out at 67%.
Regarding `Fc1ccc(-c2noc(C3CCc4c(nnn4-c4ccc(F)cc4)C3)n2)cc1` (stereo not given), the EC50 in [1] was 15.8 nM. Also, in [2], the %max came out at 106%. Further, the fold change (FC) in data set [3] amounted to 3. In addition, the Kinetic_solubility result in [8] (buffer) is reported as “Insoluble”. Moreover, the fraction unbound in data set [9] turned out to be 0.003.
Consider `Fc1ccc(-c2noc(C3CCc4c(nnn4C4CCOC4)C3)n2)cc1` (stereo not given), for which, in data set [1], the concentration giving a half-maximal response (EC50) is 398 nM. Moreover, the %max in data set [2] turned out to be 96%. Moreover, the fold change (FC) in data set [3] amounted to 4. The microsomal CLint at 3 µM in data set [5] came to 22 µL/min/mg.
For the molecule `Fc1ccc(-c2noc(C3CCc4c(nnn4C4CCCC4)C3)n2)cc1` (stereo in doubt; 9) [listing 1 of 2 here], in data set [2], the %max was 103%. In addition, the fold change (FC) in [3] came out at 10.
Turning to `Fc1ccc(-c2noc(C3CCc4c(nnn4-c4ccc(F)nc4)C3)n2)cc1` (stereo not given), the EC50 in data set [1] was over 25100 nM.
Consider `CC(C)n1nnc2c1CCC(c1nc(-c3ccc(F)cc3)no1)C2` (racemic), for which, in data set [1], the EC50 was 398 nM. The %max in [2] was 98%.
With `Fc1ccc(-c2noc(C3CCc4c(nnn4C4CCCC4)C3)n2)cc1` (stereo in doubt; 10) [listing 1 of 2 here], the %max in data set [2] was found to be 78%. Further, the fold change (FC) in [3] came to 4.
Turning to `CC(C)(C)n1nnc2c1CCC(n1cnc(-c3ccc(F)cc3)n1)C2` (stereo not given), the concentration for a half-maximal effect (EC50) in [1] is 50.1 nM. Moreover, the %max in [2] worked out at 80%. Further, in [3], the fold change (FC) was determined as 3. Moreover, the values for the microsomal CLint at 3 µM in [4] and in [5] were 4 µL/min/mg and 20 µL/min/mg, respectively. In addition, in the data set with MDCK [6], the permeability was found to be 46 ×10⁻⁶ cm/s. Besides, the Ratio with MDCK [7] came out at 0.8. For the same molecule, the solubility kinetic in data set [8] is over 100 µM. Further, the fraction unbound in data set [9] was found to be 0.056. In addition, the clearance in data set [10] turned out to be 14 mL/min/kg. Besides, in data set [11], the Vd stood at 1.9 L/kg. Further, the Tmax in data set [12] came to 2.7 h. Further, in [13], the half-life was 2.9 h. For the same molecule, the bioavailability in data set [14] turned out to be 114%. Further, the peak concentration (Cmax) in [15] amounted to 1950 nM. In addition, the Kp in [16] was 1.4. Further, in the data set on Rattus norvegicus, the minimal effective dose worked out at 0.3 mg/kg. The result in the data set filed under Homo sapiens [17], in the data set filed under Homo sapiens [18] and in the data set filed under Homo sapiens [19] was inactive. In data set [21], the IC50 was 6310 nM. The “inhibition (INH)” value in data set [20] is reported as “Not Active”.
For `CN1CCC(n2nnc3c2CCC(c2nc(-c4ccc(F)cc4)no2)C3)CC1` (racemic), the EC50 in [1] was 3980 nM. The %max in data set [2] came out at 91%.
In the case of `CC(C)(C)n1nnc2c1CCC(c1nc(Cc3ccc(F)cc3)no1)C2` (stereo not given), the EC50 in [1] was 20 nM. In addition, the %max in [2] stood at 77%. Also, the fold change (FC) in data set [3] came to 7. The microsomal CLint at 3 µM in data set [5] came to 120 µL/min/mg.
For the molecule `CC(C)(C)Cn1nnc2c1CCC(c1nc(-c3ccc(F)cc3)no1)C2` (stereo not given), in [1], the concentration giving a half-maximal response (EC50) is 31.6 nM. The %max in [2] was 108%. Further, the fold change (FC) in [3] was determined as 8.
Take `Fc1ccc(-c2nc(-c3ccc4c(c3)nnn4C3CCCC3)no2)cc1`: the EC50 in data set [1] is 398 nM. Also, the %max in data set [2] was 51%.
`CC(C)(C)n1nnc2c1CCC(c1nc(N3CCOCC3)no1)C2` (racemic): the EC50 in [1] is 1260 nM. Further, the %max in data set [2] was 29%.
`CC(C)(C)n1nnc2c1CCC(c1nc(-c3ccc(C#N)cc3)no1)C2` (stereo not given): the concentration for a half-maximal effect (EC50) in [1] was 79.4 nM. For the same molecule, in data set [2], the %max worked out at 87%. Further, in data set [3], the fold change (FC) worked out at 6.
Consider `CC(C)Cc1noc(C2CCc3c(nnn3C(C)(C)C)C2)n1` (racemic), for which the EC50 in data set [1] was 1000 nM. Moreover, in data set [2], the %max worked out at 66%.
Consider `CN(C)c1ccc(-c2noc(C3CCc4c(nnn4C(C)(C)C)C3)n2)cc1` (racemic), for which the EC50 in data set [1] is 1000 nM. The %max in data set [2] was found to be 68%.
Turning to `CC(C)(C)n1nnc2c1CCC(c1nc(C3CCCCC3)no1)C2` (racemic), in [1], the 50% effective concentration (EC50) is 200 nM. In data set [2], the %max came out at 91%.
On to `CC(C)(C)n1nnc2c1CCC(c1noc(-c3ccc(F)cc3)n1)C2` (stereo not given), for which, in data set [1], the EC50 was 5.01 nM. The %max in [2] was found to be 85%. Moreover, in [3], the fold change (FC) amounted to 5.
Turning to `CC(C)(C#N)n1nnc2c1CCC(c1nc(-c3ccc(F)cc3)no1)C2` (stereo not given), the EC50 in data set [1] is 15.8 nM. For the same molecule, in data set [2], the %max was 71%. The fold change (FC) in [3] is 3. In addition, the microsomal CLint at 3 µM in data set [4] worked out at 9 µL/min/mg; in data set [5], 6 µL/min/mg. In the data set on MDCK [6], the permeability amounted to 43 ×10⁻⁶ cm/s. Moreover, in the data set with MDCK [7], the Ratio turned out to be 0.6. The solubility kinetic in data set [8] is 5.6 µM (≈ 1.97 µg/mL). In [9], this molecule gave a fraction unbound of 0.015. The molecule also returned a clearance in data set [22] of 4 mL/min/kg. Also, the Vd in [23] came out at 2.5 L/kg. Besides, the Tmax in data set [12] was 6 h. For the same molecule, the half-life in data set [13] was 7 h. Moreover, the bioavailability in data set [14] was 45%. The molecule further had a Cmax in data set [15] of 891 nM. The Kp in [16] is 3.2. Moreover, the LED with Rattus norvegicus stood at 0.03 mg/kg. In addition, the result in the data set listed under Homo sapiens [17], in the data set filed under Homo sapiens [18] and in the data set filed under Homo sapiens [19] was inactive. The “inhibition (INH)” value in data set [20] was “Not Active”.
In the case of `Fc1ccc(-c2noc(C3CCc4c(nnn4C4CCCC4)C3)n2)cc1` (stereo in doubt; 9) [listing 2 of 2 here], the EC50 in data set [1] is 31.6 nM. In data set [5], the microsomal CLint at 3 µM worked out at 146 µL/min/mg.
Take `Fc1ccc(-c2noc(C3CCc4c(nnn4C4CCCC4)C3)n2)cc1` (stereo in doubt; 10) [listing 2 of 2 here]: the EC50 in data set [1] is 398 nM.
